According to patent US20210283211A1, “COMPOSITIONS AND METHODS OF ALLEVIATING RESISTANCE TO CHEMOTHERAPY” (CITY OF HOPE, priority 2019, published 2021):
Entries after “also recorded” stand apart in the source; their conditions may differ.

Assays:
H358 cells = test: Cell-based rescreen of top virtual-screen hits, IC50 determination; conditions: Homo sapiens, NCI-H358, 0.1 μM to 10 μM, 72 hours
Method: Cell viability assay: Cell Counting Kit-8 (CCK-8) was purchased from Dojindo Molecular Technologies (Rockville, Md., USA). Cells were seeded on a 96-well plate and allowed to adhere in complete medium for 24 hours. Test compounds were added to 100 μl of medium at the indicated concentrations for 72 hours. Ten μl of the CCK-8 reagent were added to each well and absorbance at 450 nm was measured using a Tecan Spark 10M multimode microplate reader.
A virtual screen of a library of 1440 FDA-approved drugs using binding pockets in the N-terminal domain of PXN (FIG. 9H) identified several putative hits. The top 40 hits were then rescreened employing a cell-based assay to determine their efficacy using H358 cells.

H2009 cells [1] = test: IncuCyte cell proliferation and caspase-3/7 apoptosis assay; type: cell-based, human
Method: (§1) Cell proliferation and apoptosis assay. Cell proliferation assays were performed using cell lines stably transfected with NucLight Red Lentivirus (Essen Bioscience) to accurately visualize and count the nucleus of a single cell. Cells were seeded on a 96-well plate and allowed to adhere for 24 hours. Test compounds were added at indicated concentrations. Caspase-3/7 Green Apoptosis Reagent (Essen Bioscience) was also added as a green fluorescent indicator of caspase-3/7-mediated apoptotic activity. To monitor cell proliferation and apoptosis over time, the plate was placed in the IncuCyte S3 Live-Cell Analysis System (Essen BioScience) and images were acquired every 2 hours. Data analysis was generated by the IncuCyte software using a red fluorescence mask to accurately count each cell nucleus and a green fluorescence mask to measure apoptosis over time.
(§2) To determine whether the inhibition in cell proliferation associated with ITGB4 knockdown was due to enhanced apoptosis or reduced cell division (cytostatic), the Essen Bioscience Caspase-3/7 Green apoptosis assay in live cells was conducted. The NucView™[…], a DNA intercalating dye was used to enable quantification of apoptosis over time. The dye is impermeable and non-toxic to cells but once the cell membrane is permeabilized by caspase-3/7, the dye enters the cell and gets activated due to change in pH leading to the generation of green fluorescence that is then detected in real time and quantified using the IncuCyte System (FIG. 4B).
(§3) To address this, H1993 and H2009 cells were treated with cisplatin for 3 days and the changes were analyzed by immunoblotting. […] Next, H1993 and H2009 cells were transiently transfected with ITGB4 siRNA and 24 hours post-transfection they were treated with 10 μM cisplatin and cell proliferation and caspase activity were determined. […] However, in response to cisplatin in ITGB4 knockdown cells, the fold change dipped to <1, alluding to a cytotoxic effect (FIG. 4C). […] However, cell death was not due to caspase activation but appeared to be due to cell bursting which is seen in anoikis (FIGS. 3K and 3L).

H1993 cells [2] = test: as above; type: cell-based, human; conditions: for inhibition of cell proliferation: siRNA knockdown
Method: as §1, §2
as §3, with “3L). […]” for “3L).”

H1993 cells [3] = test: Scratch wound healing assay; type: cell-based, human; conditions: ITGB4 knockdown
Method: (§4) Scratch wound healing assay. Cells were seeded on a 96-well Image Lock (Essen BioScience, Ann Arbor, Mich., USA) plate to reach 90% confluence by the next day. After cell adherence, 96 uniform wounds were created simultaneously using the WoundMaker (Essen BioScience) tool. Cells were washed once with serum-free medium and replenished with complete medium. To monitor wound healing, the plate was placed in the IncuCyte S3 Live-Cell Analysis System (Essen BioScience) and images were acquired every hour. Data analysis was generated by the IncuCyte software using a set confluence mask to measure relative wound density over time.
(§5) To discern the effect of knocking down ITGB4 on cell migration, H1993 and H2009 cells were transfected with the control or ITGB4-specific siRNA in 6-well plates and 12 hours post transfection, the cells were trypsinized and reseeded at high density in a 96-well plate. […] While both cell lines transfected with the control siRNA achieved 100% confluency of the wound within 48 hours, H1993 and 2009 cells in which ITGB4 was knocked down reached ˜60% and ˜80% confluency, respectively; neither cell line reached 100% confluency even after 96 h (FIG. 3F). Next the rate of wound closure was estimated. The rate was determined by dividing initial wound width by the time taken to close the wound. […] Similarly, in the case of the H2009 cells, the wound width closure rate dropped from 22 μm/h to about 18 μm/h (FIG. 3G). […] Additionally, up regulation of expression of other integrin β forms in response to ITGB4 knockdown was checked and an increase in the expression of ITGB1, ITGB2, and ITGB3 at mRNA level was found (FIG. 3I). The effect of ITGB3 silencing in the ITGB4 knocked down cells was further tested but no significant difference in their proliferation was found (FIG. 3J).

H2009 cells [4] = test: Scratch wound healing assay; type: cell-based, human; conditions: for cell migration / wound healing: sublethal dose (carfilzomib 50-200 nM)
Method: as §4, §5

[5] = test system: ITGB4 and PXN expression, γH2AX in H358 cells; test: Immunoblot after sublethal dose; type: cell-based, human; conditions: 72 hours
Method: West blotting: Cell lysates were prepared with 1×RIPA buffer (MilliporeSigma) and denatured in 1× reducing sample buffer at 95° C. for 5 minutes. Protein samples (15 μg) were run on 4-15% TGX gels (Bio-Rad, Hercules, Calif., USA) and transferred onto nitrocellulose membranes (Bio-Rad). Blots were blocked with 5% non-fat milk in TBS-T for 1 hour at room temperature and probed with primary antibody diluted in 2.5% BSA in TBS-T overnight at 4° C. After three washes with TBS-T, blots were incubated with HRP-conjugated secondary antibodies for 2 hours at room temperature. After three more washes, bands of interest were visualized via chemiluminescence using Western Bright ECL HRP substrate (Advansta, Menlo Park, Calif., USA) and imaged with the ChemiDoc MP imager (Bio-Rad).
Then a sublethal dose was used to determine the effect of these compounds on ITGB4 and PXN expression and caspase activity (FIG. 9I). […] These eleven compounds were further screened in the cisplatin-resistant cell line H2009. […] Further, carfilzomib was tested in another cisplatin-resistant cell line H1993.

## C=CC(=O)N1CCC(Oc2cc3c(Nc4ccc(Cl)c(Cl)c4F)ncnc3cc2OC)CC1 [Poziotinib]
H358 cells
  IC50: 60 nM

## COc1cc2ncnc(Nc3ccc(F)c(Cl)c3)c2cc1NC(=O)/C=C/CN1CCCCC1 [Dacomitinib]
H358 cells
  IC50: 60 nM

## C1=C/COCc2cc(ccc2OCCN2CCCC2)Nc2nccc(n2)-c2cccc(c2)COC/1 [Pacritinib]
H358 cells
  IC50: 171 nM

## GUCAGUUCUGCGAGUAUGACAACTT (SEQ ID NO: 9) (chemistry not given here) [ITGB4 siRNA, siRNA against ITGB4, construct C, OriGene SR302473C]
H2009 cells [1]; ITGB4 knockdown, control approximately 25 hours
  doubling time: 40 h
H1993 cells [2]; ITGB4 knockdown or 10 μM cisplatin alone, cytostatic
  fold change in cell count: ~1 fold
H1993 cells [2]; ITGB4 knockdown plus 10 μM cisplatin, cytotoxic
  fold change in cell count: < 1 fold
H1993 cells [2]; ITGB4 knockdown, by 24 hours
  increase in caspase activity compared to control: 5- to 6 fold
H1993 cells [2]; ITGB4 knockdown, by 72 hours
  increase in caspase activity compared to control: 20 fold
  increase in cell count: 0.2 fold
H1993 cells [2]; ITGB4 knockdown, control 72 hours
  estimated doubling time: approximately 120 hours
H1993 cells [2]; knockdown plus cisplatin, compared to scramble siRNA cells treated with cisplatin
  drop in the fold change of cell count: 40%
H1993 cells [2]
  inhibition of cell proliferation: 50%
H1993 cells [3]; control siRNA 100% within 48 hours
  wound confluency: ~60%
H1993 cells [3]; control ~25 μm/h
  wound closure rate: < 10 μm/h
H2009 cells [4]; ITGB4 knockdown, control 22 μm/h
  wound width closure rate: about 18 μm/h
H2009 cells [4]; ITGB4 knockdown, control siRNA 100% within 48 hours
  wound confluency: ~80%

## Cc1cc(Nc2cc(N3CCN(C)CC3)nc(Sc3ccc(NC(=O)C4CC4)cc3)n2)[nH]n1 [Tozasertib]
H358 cells
  IC50: 0.9 nM

## C=CC(=O)Nc1cc(Nc2nccc(-c3cn(C)c4ccccc34)n2)c(OC)cc1N(C)CCN(C)C [Osimertinib]
H358 cells
  IC50: 358 nM

## C#Cc1cccc(Nc2ncnc3cc(OC)c(OCCCCCCC(=O)NO)cc23)c1 [CUDC-101]
H358 cells
  IC50: 501 nM
[5]
  apoptosis, DNA damage (γH2AX) and ITGB4 expression: induced apoptosis and caused DNA damage
H2009 cells [4]
  cell migration / wound healing: less effective than carfilzomib in inhibiting wound healing; also recorded: did not

## GGAGCACAAAGCCAACUAACGARCA (SEQ ID NO: 11) (listed as RNA, chemistry not given here) [USP1 siRNA, siRNA against USP1, construct B, OriGene SR305052B]
H2009 cells [1]; USP1 knockdown, by 72 hours of seeding
  inhibition of cell proliferation: > 2 fold

## Cc1nc(Nc2ncc(C(=O)Nc3c(C)cccc3Cl)s2)cc(N2CCN(CCO)CC2)n1 [Dasatinib]
H358 cells
  IC50: 1 nM

## GCUUCGCUGUCGGAUUUCATT (SEQ ID NO: 6) (chemistry not given here) [PXN siRNA, siRNA against PXN, Life Technologies Cat 4392421]
H1993 cells [2]
  inhibition of cell proliferation: 15%

## CC(C)C[C@H](NC(=O)CNC(=O)c1cc(Cl)ccc1Cl)B(O)O [Ixazomib]
H358 cells
  IC50: 303 nM
[5]
  apoptosis, DNA damage (γH2AX) and ITGB4 expression: induced apoptosis and caused DNA damage
H2009 cells [4]
  cell migration / wound healing: less effective than carfilzomib in inhibiting wound healing; also recorded: impeded cell migration

## Cc1cnc(-c2ccccc2C(C)C)nc1NCc1ccc(-n2ccnn2)cc1 [ML323]
H2009 cells [1]; 5 μM and 10 μM, 3 days
  cell proliferation rates: no significant change
H1993 cells [2]; 5 μM and 10 μM, 3 days
  cell proliferation rates: no significant change

## CN(C)C/C=C/C(=O)Nc1cc2c(Nc3ccc(F)c(Cl)c3)ncnc2cc1O[C@H]1CCOC1 [Afatinib]
H358 cells
  IC50: 9 nM

## ACAACACUCAGAAUCUAAAUUGGAC (SEQ ID NO: 13) (listed as RNA, chemistry not given here) [VDAC1 siRNA, siRNA against VDAC1]
H2009 cells [1]; VDAC1 knockdown, 120 hours
  increase in apoptosis: 2 fold
H2009 cells [1]; VDAC1 knockdown, by 72 hours
  decrease in cell proliferation: 50%

## CCS(=O)(=O)N1CCN(c2ccc(Nc3ncc(C(N)=O)c(NC4CC4)n3)cc2)CC1 [Cerdulatinib]
H358 cells
  IC50: 1540 nM
